Assay [1] concerns the target T1, NLRP3 (Homo sapiens, UniProt Q96P20). The experiment in a line: THP-1 cells pyroptosis assay. The following applies: LPS 1 μg/ml, compound 3 hrs, nigericin 5 μM 1 hr, resazurin readout. Set-up: Seed THP-1 cells (25,000 cells/well) containing 1.0 μg/ml LPS in 40 μl of RPMI medium; host or cells: THP-1 cells. It counts as cell-based. As to the method:
THP-1 cells (ATCC #TIB-202) were grown in RPMI containing L-glutamine (Gibco #11835) supplemented with 1 mM sodium pyruvate (Sigma #S8636) and penicillin (100 units/ml)/streptomycin (0.1 mg/ml) (Sigma #P4333) in 10% Fetal Bovine Serum (FBS) (Sigma #F0804). The cells were routinely passaged and grown to confluency (˜10^6 cells/ml). On the day of the experiment, THP-1 cells were harvested and resuspended into RPMI medium (without FBS). The cells were then counted and viability ([…]) checked by Trypan blue (Sigma #T8154). Appropriate dilutions were made to give a concentration of 625,000 cells/ml. To this diluted cell solution was added LPS (Sigma #L4524) to give a 1 μg/ml Final Assay Concentration (FAC). 40 μl of the final preparation was aliquoted into each well of a 96-well plate. The plate thus prepared was used for compound screening.
The following method step-by-step assay was followed for compound screening. • 1. Seed THP-1 cells (25,000 cells/well) containing 1.0 μg/ml LPS in 40 μl of RPMI medium (without FBS) in 96-well, black walled, clear bottom cell culture plates coated with poly-D-lysine (VWR #734-0317) • 2. Add 5 μl compound (8 points half-log dilution, with 10 μM top dose) or vehicle (DMSO 0.1% FAC) to the appropriate wells • 3. Incubate for 3 hrs at 37° C., 5% CO2 • 4. Add 5 μl nigericin (Sigma #N7143) (FAC 5 μM) to all wells • 5. Incubate for 1 hr at 37° C., 5% CO2 • 6. At the end of the incubation period, spin plates at 300×g for 3 mins and remove supernatant • 7. Then add 50 μl of resazurin (Sigma #R7017) (FAC 100 μM resazurin in RPMI medium without FBS) and incubate plates for a further 1-2 hrs at 37° C. and 5% CO2 • 8. Plates were read in an Envision reader at Ex 560 nm and Em 590 nm • 9. IC50 data is fitted to a non-linear regression equation (log inhibitor vs response-variable slope 4-parameters)
A general note: The colour change of resazurin is a common sign of viable cells or microbes.

The target in assay [2] is T1, NLRP3. The experiment in a line: Human whole blood IL-1β release assay. The assay is classed as cell-based. Set-up: Plate out 80 μl of whole blood containing 1 μg/ml of LPS in 96-well, clear bottom cell culture plate; from tissue; host or cells: human whole blood from healthy donors. The note with it: LPS 1 μg/ml, compound 3 hrs, nigericin 10 μM 1 hr, IL-1β by AlphaLisa, read-out: HWB IC50. As to the method:
For systemic delivery, the ability to inhibit NLRP3 when the compounds are present within the bloodstream is of great importance. For this reason, the NLRP3 inhibitory activity of a number of compounds in human whole blood was investigated in accordance with the following protocol.
Human whole blood in Li-heparin tubes was obtained from healthy donors from a volunteer donor panel. • 1. Plate out 80 μl of whole blood containing 1 μg/ml of LPS in 96-well, clear bottom cell culture plate (Corning #3585) • 2. Add 10 μl compound (8 points half-log dilution with 10 μM top dose) or vehicle (DMSO 0.1% FAC) to the appropriate wells • 3. Incubate for 3 hrs at 37° C., 5% CO2 • 4. Add 10 μl nigericin (Sigma #N7143) (10 μM FAC) to all wells • 5. Incubate for 1 hr at 37° C., 5% CO2 • 6. At the end of the incubation period, spin plates at 300×g for 5 mins to pellet cells and remove […] of supernatant and add to 96-well v-bottom plates for IL-1β analysis (note: these plates containing the supernatants can be stored at −80° C. to be analysed at a later date) • 7. IL-1β was measured according to the manufacturer protocol (Perkin Elmer-AlphaLisa IL-1 Kit AL220F-5000) • 8. IC50 data is fitted to a non-linear regression equation (log inhibitor vs response-variable slope 4-parameters)

Structures can show the parent of a compound that is named as a salt.

One may read the IC50 as the point on the concentration scale where inhibition reaches its midpoint.

T1 sequence (Q96P20 whole entry): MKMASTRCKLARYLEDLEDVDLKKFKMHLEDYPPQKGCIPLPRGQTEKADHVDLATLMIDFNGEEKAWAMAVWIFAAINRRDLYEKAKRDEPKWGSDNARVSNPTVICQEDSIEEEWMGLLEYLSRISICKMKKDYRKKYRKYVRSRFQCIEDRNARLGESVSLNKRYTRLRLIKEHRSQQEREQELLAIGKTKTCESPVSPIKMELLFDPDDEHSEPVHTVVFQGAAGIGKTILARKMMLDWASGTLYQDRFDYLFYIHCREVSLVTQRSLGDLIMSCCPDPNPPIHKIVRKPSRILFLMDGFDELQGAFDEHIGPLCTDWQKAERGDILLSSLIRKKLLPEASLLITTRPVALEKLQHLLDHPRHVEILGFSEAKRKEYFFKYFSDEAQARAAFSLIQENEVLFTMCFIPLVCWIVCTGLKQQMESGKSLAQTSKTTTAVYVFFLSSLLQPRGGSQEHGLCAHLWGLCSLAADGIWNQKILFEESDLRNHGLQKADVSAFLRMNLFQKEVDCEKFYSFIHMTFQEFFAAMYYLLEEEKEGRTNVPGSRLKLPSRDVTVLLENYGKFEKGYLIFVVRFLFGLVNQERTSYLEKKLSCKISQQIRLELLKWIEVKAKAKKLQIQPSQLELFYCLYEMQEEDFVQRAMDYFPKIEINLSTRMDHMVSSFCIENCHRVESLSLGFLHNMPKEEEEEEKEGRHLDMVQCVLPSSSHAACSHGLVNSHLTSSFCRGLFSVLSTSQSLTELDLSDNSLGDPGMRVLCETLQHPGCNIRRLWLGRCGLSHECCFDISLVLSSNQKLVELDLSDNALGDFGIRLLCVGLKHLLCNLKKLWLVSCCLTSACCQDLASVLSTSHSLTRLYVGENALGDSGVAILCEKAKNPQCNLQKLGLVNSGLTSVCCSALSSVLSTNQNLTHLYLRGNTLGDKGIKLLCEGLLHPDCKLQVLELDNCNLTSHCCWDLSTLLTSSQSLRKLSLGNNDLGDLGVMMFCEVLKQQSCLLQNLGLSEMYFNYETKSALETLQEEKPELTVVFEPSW

Turning to `CC1(C)COCCOc2cc(ccn2)-c2ccc3c(c2NC(=O)NS(=O)(=O)c2ccn1n2)CCC3` [Example 12, 19,19-dimethyl-21,24-dioxa-14λ^6-thia-11,13,18,26,30-pentaazapentacyclo-[23.3.1.1^15,18.0^2,10.0^5,9]triaconta-1(28),2,4,9,15(30),16,25(29),26-octaene-12,14,14-trione], the IC50 fell in the range of 100 to 500 nM in assay [1] and 500 to 1000 nM in assay [2].
Consider `CN1CCOc2cc(ccn2)-c2ccc3c(c2NC(=O)NS(=O)(=O)c2ccn(n2)C(C)(C)C1=O)CCC3` [Example 13, 19,19,21-trimethyl-24-oxa-14λ^6-thia-11,13,18,21,26,30-hexaazapentacyclo-[23.3.1.1^15,18.0^2,10.0^5,9]triaconta-1(28),2,4,9,15(30),16,25(29),26-octaene-12,14,14,2o-tetrone], for which the IC50 is 100 to 500 nM in assay [1] and 500 to 1000 nM in assay [2].
In the case of `CN1CCCOc2cc(ccn2)-c2ccc3c(c2NC(=O)NS(=O)(=O)c2cc(n(C4CC4)n2)C1)CCC3` [Example 14, 17-cyclopropyl-20-methyl-24-oxa-14λ^6-thia-11,13,16,17,20, 26-hexaazapentacyclo-[23.3.1.1^15,18.0^2,10.0^5,9]triaconta-1(28),2,4,9,15,18(30),25(29),26-octaene-12,14,14-trione], the IC50 was 100 to 500 nM in assay [1] and 1000 to 5000 nM in assay [2].
With `O=C1Nc2c(ccc3c2CCC3)-c2ccnc(c2)OCCCOCc2cc(nn2C2CC2)S(=O)(=O)N1` [Example 15, 17-cyclopropyl-20,24-dioxa-14λ^6-thia-11,13,16,17,26-pentaazapentacyclo-[23.3.1.1^15,18.0^2,10.0^5,9]triaconta-1(28),2,4,9,15,18(30),25(29),26-octaene-12,14,14-trione], the figures for the IC50 in assay [1] and in assay [2] were at most 100 nM and 100 to 500 nM, respectively.
`CN(C)Cc1cc2nn1CCCCCOc1cc(ccn1)-c1ccc3c(c1NC(=O)NS2(=O)=O)CCC3` [Example 17, 17-[(dimethylamino)-methyl]-24-oxa-14λ^6-thia-11,13,18,26,30-pentaazapentacyclo-[23.3.1.1^15,18.0^2,10.0^5,9]triaconta-1(28),2,4,9,15(30),16,25(29),26-octaene-12,14,14-trione]: the IC50 is at most 100 nM in assay [1] and 500 to 1000 nM in assay [2].
On to `CN1CCOc2cc(ccn2)-c2ccc3c(c2NC(=O)NS(=O)(=O)c2ccn(n2)C(C)(C)C1)CCC3` [Example 18, 19,19,21-trimethyl-24-oxa-14λ^6-thia-11,13,18,21,26,30-hexaazapentacyclo-[23.3.1.1^15,18.0^2,10.0^5,9]triaconta-1(28),2,4,9,15(30),16,25(29),26-octaene-12,14,14-trione], for which the results for the IC50 in assay [1] and in assay [2] were 100 to 500 nM and 500 to 1000 nM, respectively.
Taken in the same sequence, the figures for `O=C1Nc2c(ccc3c2CCC3)-c2ccnc(c2)OCCCCCS(=O)(=O)N1` [Example 19, 20-oxa-14λ^6-thia-11,13,22-triazatetracyclo-[19.3.1.0^2,10.0^5,9]triaconta-1(24),2,4,9,21(25),22-hexaene-12,14,14-trione] were 500 to 1000 nM and 500 to 1000 nM.
With `O=C1Nc2c(ccc3c2CCC3)-c2ccnc(c2)OCCn2ccc(n2)S(=O)(=O)N1` [Example 20, 21-oxa-14λ^6-thia-11,13,18,23,27-pentaazapentacyclo-[20.3.1.1^15,18.0^2,10.0^5,9]heptacosa-1(25),2,4,9,15(27),16,22(26),23-octaene-12,14,14-trione], the IC50 in assay [1] is at most 100 nM; in assay [2], 100 to 500 nM.
As to `CN(C)Cc1cc2nn1CCCOc1cc(ccn1)-c1ccc3c(c1NC(=O)NS2(=O)=O)CCC3` [Example 22, 17-[(dimethylamino)-methyl]-22-oxa-14λ^6-thia-11,13,18,24,28-pentaazapentacyclo-[21.3.1.1^15,18.0^2,10.0^5,9]octacosa-1(26),2,4,9,15(28),16,23(27),24-octaene-12,14,14-trione], the IC50 in assay [1] and in assay [2] was 100 to 500 nM each time.
`O=C1Nc2c(ccc3c2CCC3)-c2ccnc(c2)OCCCn2cc(F)c(n2)S(=O)(=O)N1` [Example 23, 16-fluoro-22-oxa-14λ^6-thia-11,13,18,24,28-pentaazapentacyclo-[21.3.1.1^15,18.0^2,10.0^5,9]octacosa-1(26),2,4,9,15(28),16,23(27),24-octaene-12,14,14-trione]: the IC50 in assay [1] and in assay [2] was 100 to 500 nM in each case.
For the molecule `Cc1cc2c(c3c1-c1ccnc(c1)OCC(C)(C)n1ccc(n1)S(=O)(=O)NC(=O)N3)CCC2` [Example 24, 3,19,19-trimethyl-21-oxa-14λ^6-thia-11,13,18,23,27-pentaazapentacyclo-[20.3.1.1^15,18.0^2,10.0^5,9]heptacosa-1(25),2(10),3,5(9),15(27),16,22(26),23-octaene-12,14,14-trione, Sodium Salt], the IC50 was at most 100 nM in assay [1] and 100 to 500 nM in assay [2].
Turning to `O=C1Nc2c(ccc3c2CCC3)-c2ccnc(c2)OCCn2cc(F)c(n2)S(=O)(=O)N1` [Example 25, 16-fluoro-21-oxa-14λ^6-thia-11,13,18,23,27-pentaazapentacyclo-[20.3.1.1^15,18.0^2,10.0^5,9]heptacosa-1(25),2,4,9,15(27),16,22(26),23-octaene-12,14,14-trione], the IC50 in assay [1] and in assay [2] was at most 100 nM each time.
As for `Cc1cc2c(c3c1-c1ccnc(c1)OCC(C)(C)n1cc(F)c(n1)S(=O)(=O)NC(=O)N3)CCC2` [Example 26], the IC50 in assay [1] was at most 100 nM; in assay [2], 100 to 500 nM.
As for `CC1(C)COc2cc(ccn2)-c2ccc3c(c2NC(=O)NS(=O)(=O)c2nn1cc2F)CCC3` [Example 27, 16-fluoro-19,19-dimethyl-21-oxa-14λ^6-thia-11,13,18,23,27-pentaaza-pentacyclo[20.3.1.1^15,18.0^2,10.0^5,9]-heptacosa-1(25),2,4,9,15(27),16,22(26),23-octaene-12,14,14-trione, sodium salt], the IC50 in assay [1] is at most 100 nM; in assay [2] it was 100 to 500 nM.
In the case of `Cc1cc2c(c3c1-c1ccnc(c1)OCCn1ccc(n1)S(=O)(=O)NC(=O)N3)CCC2` [Example 28, 3-methyl-21-oxa-14λ^6-thia-11,13,18,23,27-pentaazapentacyclo-[20.3.1.1^15,18.0^2,10.0^5,9]heptacosa-1(25),2(10),3,5(9),15(27),16,22(26),23-octaene-12,14,14-trione, sodium salt], the IC50 in assay [1] is at most 100 nM; in assay [2], 100 to 500 nM.
Regarding `Cc1cc2c(c3c1-c1ccnc(c1)OCCn1cc(F)c(n1)S(=O)(=O)NC(=O)N3)CCC2` [Example 29, 16-fluoro-3-methyl-21-oxa-14λ^6-thia-11,13,18,23,27-pentaaza-pentacyclo[20.3.1.1^15,18.0^2,10.0^5,9]-heptacosa-1(25),2(10),3,5(9),15(27),16,22(26),23-octaene-12,14,14-trione, sodium salt], the figures for the IC50 in assay [1] and in assay [2] were at most 100 nM and 100 to 500 nM, respectively.
Regarding `CC(C)c1cc(F)cc2c1NC(=O)NS(=O)(=O)c1nn(cc1F)C(C)(C)COc1cc-2ccn1` [Example 30, 4,13-difluoro-16,16-dimethyl-6-(propan-2-yl)-18-oxa-11λ^6-thia-8,10,15,20,24-pentaazatetracyclo-[17.3.1.1^12,15.0^2,7]tetracosa-1(22),2(7),3,5,12(24),13,19 (23),20-octaene-9,11,11-trione, sodium salt], the half-inhibitory concentration (IC50) is at most 100 nM in assay [1] and 100 to 500 nM in assay [2].

The record behind these values is patent US20220289766A1 (INFLAZOME LIMITED, priority 2019, published 2022).
